{
  "source": "patent US20080089851A1",
  "about": "“Brown Algae Cell Lyophilisate, Method For The Obtention Thereof” (BIOTECHMARINE, priority 2005, published 2008)",
  "key": {"[1]": {"tested_on": "microsomes of human keratinocytes", "experiment": "Transport of glucids (glucose), direct treatment of isolated microsomes", "format": "biochemical", "settings": "for Capture of [^3H]3-O-MG: Phloretin 0.25 mM", "method": "7.1—Assessment of the Rate of Transport of Macromolecules (Glucids, Lipids and Proteins) in a System of Isolated Microsomes. Direct Effect of the BB Product on Isolated Microsomes: The microsomes of human keratinocytes form a membrane fraction obtained by high-speed differential centrifugation of a cell homogenate. This preparation of microsomes requires the addition of exogenous cofactors such as NADPH. 7.1.1—Transport of Glucids (Glucose) The assay was performed in triplicate after the direct treatment of microsomes. • Charge 1: negative control not receiving any product. • Charge 2: positive control (0.25 mM phloretin) • Charges 3-5: treated with the investigated product (3 concentrations) • Charges 6-8: treated with 0.25 mM phloretin and with the investigated product (3 concentrations) The obtained microsomes from human keratinocytes in culture were washed 3 times with a PBS buffer without glucose then pre-incubated in 1 ml of the same buffer for 30 minutes at 37° C. Subsequently, this solution was discarded and the microsomes placed into the glucose-free PBS buffer containing 3-0-Methyl glucose (MG) and [^3H] 3-0-MG with stirring in a water-bath at 37° C. The capture of 3-0-MG is stopped by addition of 1 ml of cold PBS containing cytochalasine B. The kinetics of incubation was performed between 30 and 120 seconds. The microsomes were further rinsed 2 times with PBS, then dissolved in NaOH (1M) at 4° C., over night. The radioactivity was determined with a scintillation counter. The treatments of microsomes with the BB product alone or in the presence of phloretin were carried out at the same time as the introduction of [3H] 3-0-MG into the incubation medium. The protein assay was performed following the BRADFORD method. The increase in absorbance at 595 nm, determined with spectrophotometer, is proportional to the protein concentration."}, "[2]": {"tested_on": "normal human keratinocytes", "experiment": "Transport of glucides (glucose), normal human keratinocytes", "format": "cell-based", "settings": "for Capture of [^3H]3-O-MG: Phloretin 0.25 mM", "method": "The obtained microsomes from human keratinocytes in culture were washed 3 times with a PBS buffer without glucose then pre-incubated in 1 ml of the same buffer for 30 minutes at 37° C. Subsequently, this solution was discarded and the microsomes placed into the glucose-free PBS buffer containing 3-0-Methyl glucose (MG) and [^3H] 3-0-MG with stirring in a water-bath at 37° C. The capture of 3-0-MG is stopped by addition of 1 ml of cold PBS containing cytochalasine B. The kinetics of incubation was performed between 30 and 120 seconds. The microsomes were further rinsed 2 times with PBS, then dissolved in NaOH (1M) at 4° C., over night. The radioactivity was determined with a scintillation counter. 7.2—Assessment of the Rate of Transport of Macromolecules at the Level of Normal Human Keratinocytes The applied method was that of explants allowing to obtain, from a biopsy of human skin, keratinocytes in primary cultures. The assays were carried out on keratinocytes between the 2nd and the 4th passage in order to ensure a reproductibility between the different experiences. The keratinocytes were divided into multiwell plates (6 wells) at a rate of 10^5 cells per well in 1 ml of culture medium […] supplemented with insulin and hydrocortisone. The cells were incubated in the presence and absence of the investigated product. 7.2.1—Transport of Glucides (Glucose) The assay was carried out in triplicate on normal human keratinocytes in culture. • Charge 1: negative control not receiving any product. • Charge 2: positive control (0.25 mM Phloretin) • Charge 3: treated receiving the investigated product • Charges 6-8: treated with 0.25 mM phloretin and the investigated product (3 concentrations) The treatment of keratinocytes with the BB product in the presence and absence of 0.25 mM phloretin was carried out for 20 minutes at 37° C. The membrane microsomes were separated by differential centrifugation. The same protocol of capture of [3H] 3-0-Methyl-Glucose was adopted for the determination of the rate of transport of glucose. (cf. 6.1.1)."}, "[3]": {"tested_on": "human keratinocytes in senescence", "experiment": "Transport of glucids (glucose), human keratinocytes in senescence", "format": "cell-based", "settings": "for Capture of [^3H]3-O-MG: Phloretin 0.25 mM", "method": "The obtained microsomes from human keratinocytes in culture were washed 3 times with a PBS buffer without glucose then pre-incubated in 1 ml of the same buffer for 30 minutes at 37° C. Subsequently, this solution was discarded and the microsomes placed into the glucose-free PBS buffer containing 3-0-Methyl glucose (MG) and [^3H] 3-0-MG with stirring in a water-bath at 37° C. The capture of 3-0-MG is stopped by addition of 1 ml of cold PBS containing cytochalasine B. The kinetics of incubation was performed between 30 and 120 seconds. The microsomes were further rinsed 2 times with PBS, then dissolved in NaOH (1M) at 4° C., over night. The radioactivity was determined with a scintillation counter. 7.3-Assessment of the Rate of Transport of Macromolecules at the Level of Human Keratinocytes in Senescence The senescence is a phenomenon of cellular aging, where the cells are arrested in the phase G1 of the cell cycle and never enter the synthesis phase leading to the cell division. Senescent cells are characterized by their slow metabolism at synthesis and transport of macromolecules levels. The cells in culture deprived of serum stop their growth, but continue to progress through the cell cycle until they reach the phase G1. The applied method allowed to obtain, from a human skin biopsy, primary cultures of keratinocytes. The assays were performed on keratinocytes, between the 8th and the 10th passage, in order to ensure the presence of senescent cells at control cells level. The keratinocytes were seeded in multiwell plates (6 wells) at a rate of 10^5 cells per well in 3 ml of culture medium […] supplemented with EGF, hydrocortisone, insulin and […]. Afterwards they are maintained for 5 days in incubator under CO2. 7.3.1-Transport of Glucids (Glucose) The assay was carried out in triplicate on human keratinocytes in senescence. • Charge 1: negative control not receiving any product. • Charge 2: positive control (0.25 mM Phloretin) • Charge 3: treated receiving the investigated product • Charges 6-8: treated with 0.25 mM phloretin and with the investigated product (3 concentrations) The treatment of keratinocytes with the BB product in the presence and absence of 0.25 mM phloretin was performed for 20 minutes at 37° C. The membrane microsomes were separated by differential centrifugation. The same protocol of capture of [3H] 3-0-Methyl-Glucose was applied to the determination of the rate of transport of glucose (cf. 6.1.1)."}, "[4]": {"tested_on": "reconstructed CORNEA Skinethic (keratinocytes of the TR 146 line)", "experiment": "Mucous tolerance: cytotoxicity (MTT colour) on reconstructed CORNEA Skinethic", "format": "cell-based, human", "parameters": "key to TOXICITY: NI = not irritant; I = irritant; VI = very irritant", "settings": "for Colour of both cultures: MTT", "method": "1. —Experimental Protocol\nKeratinocytes of the TR 146 line, spontaneously transformed, amplified, by cell culture in a defined modified MCDB 153 medium were used.\nWhen cultured on the interface air/liquid in a defined medium, these human keratinocytes form a multilayered epithelium without the cornea layer similar to the human cornea.\nThe product to be investigated, in this case the BB product according to Example 3, is applied at a rate of 30 μL onto the surface of eight equivalent cultures using a micro-pipette. These cultures are subsequently incubated at 37° C., 5% of CO2, for 10 minutes, 1 hour, 3 hours and 24 hours, at a rate of two cultures by incubation period.\nNegative (buffered saline solution) and positive (SDS 0.5% and 1%) controls are prepared sterile and applied in the same way on two cultures, respectively.\nThese cultures are subsequently incubated at 37° C., 5% of CO2, for 1 hour and 24 hours, at a rate of two cultures by incubation period.\n2. —Assessment of the Cellular Viability\nThe cellular viability is further measured qualitatively after labelling with a vital dye. The MTT system measures the mitochondrial dehydrogenase activity of living cells. The key component is the 3-[4,5-dimethylthiazol-2-yl]-2,5-diphenyl tetrazolium bromide or MTT.\nThe salt solutions buffered with MTT, in the absence of phenol red, are yellow coloured. The mitochondrial deshydrogenases of living cells cut the tetrazolium cycle, thus inducing formation of purple formazan crystals, insoluble in aqueous solutions.\nThe crystals formed by the viable cells are trapped in the polycarbonate filters which serve as support to epithelial cultures. The cultures turn to a uniform intense blue/purple colour when they are viable, but remain white/yellow in the case of cell mortality.\nThe results are compared to negative and positive control substances.\n0.15 ml of culture medium containing 10% vol/vol of MTT solution are pipetted under each filter/culture support. After an incubation of 30 min at room temperature, the colour of the different cultures is observed.\nNegative control cultures should show an intense blue/purple colour, proof of the viability of mucosa after being in contact for 24 hours.\nPositive control cultures should show a white colour, proof of the cellular mortality as from the 1st hour of contact."}},
  "data": [
    {"compound": "O=C(CCc1ccc(O)cc1)c1c(O)cc(O)cc1O", "note": "[Phloretin, phloretin]", "values": [
      {"measurement": "Capture of [^3H]3-O-MG", "setting": "[1]; 30 s", "value": 4, "unit": "nmol/mg proteins"},
      {"measurement": "Capture of [^3H]3-O-MG", "setting": "[1]; 60 s", "value": 6, "unit": "nmol/mg proteins"},
      {"measurement": "Capture of [^3H]3-O-MG", "setting": "[1]; 90 s", "value": 8, "unit": "nmol/mg proteins"},
      {"measurement": "Capture of [^3H]3-O-MG", "setting": "[1]; 120 s", "value": 8, "unit": "nmol/mg proteins"},
      {"measurement": "rate of transport of glucose (in words)", "setting": "[1]; phloretin 0.25 mM alone", "value": "strongly inhibits"},
      {"measurement": "Capture of [^3H]3-O-MG", "setting": "[2]; 30 s", "value": "6 nmol/mg of proteins"},
      {"measurement": "Capture of [^3H]3-O-MG", "setting": "[2]; 60 s", "value": "8 nmol/mg of proteins"},
      {"measurement": "Capture of [^3H]3-O-MG", "setting": "[2]; 90 s", "value": "9 nmol/mg of proteins"},
      {"measurement": "Capture of [^3H]3-O-MG", "setting": "[2]; 120 s", "value": "10 nmol/mg of proteins"},
      {"measurement": "rate of transport of glucose (in words)", "setting": "[2]; phloretin 0.25 mM alone", "value": "strongly inhibits"},
      {"measurement": "Capture of [^3H]3-O-MG", "setting": "[3]; 30 s", "value": "1 nmol/mg of proteins"},
      {"measurement": "Capture of [^3H]3-O-MG", "setting": "[3]; 60 s", "value": "3 nmol/mg of proteins"},
      {"measurement": "Capture of [^3H]3-O-MG", "setting": "[3]; 90 s", "value": "5 nmol/mg of proteins"},
      {"measurement": "Capture of [^3H]3-O-MG", "setting": "[3]; 120 s", "value": "7 nmol/mg of proteins"},
      {"measurement": "rate of transport of glucose (in words)", "setting": "[3]; phloretin 0.25 mM alone", "value": "strongly inhibits"}
    ]},
    {"compound": "CCCCCCCCCCCCOS(=O)(=O)[O-].[Na+]", "note": "[SDS]", "values": [
      {"measurement": "TOXICITY", "setting": "[4]; SDS 0.5%", "value": "I"},
      {"measurement": "Colour of both cultures", "setting": "[4]; SDS 0.5%, 10 min", "value": "blue"},
      {"measurement": "Colour of both cultures", "setting": "[4]; SDS 0.5%, 1 h", "value": "white"},
      {"measurement": "Colour of both cultures", "setting": "[4]; SDS 0.5%, 3 h", "value": "white"},
      {"measurement": "TOXICITY", "setting": "[4]; SDS 1%", "value": "VI"},
      {"measurement": "Colour of both cultures", "setting": "[4]; SDS 1%, 10 min", "value": "white"},
      {"measurement": "Colour of both cultures", "setting": "[4]; SDS 1%, 1 h", "value": "white"}
    ]}
  ]
}
